# According to patent US11000033B2, “Ketone or oxime compound, and herbicide” (NISSAN CHEMICAL CORPORATION, priority 2014, dated 2021):
# Tests used:
# Assay type in all cases: in vivo
# [1] = tested on: Apera spica-venti; assay: Test Example 4: herbicidal effect by soil treatment (symbol L); conditions: application herbicide amount 320 g/ha
# Method in brief: (§1)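 Seeds were sown in sterilized diluvial soil, covered with about 1.5 cm of soil, and the soil surface was sprayed with a water-diluted emulsion of the compound at a predetermined rate. Plants grew in a greenhouse at 25° C. to 30° C.; effects were scored visually 3 weeks after application.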
# [2] = tested on: Leptochloa chinensis; assay: Test Example 3: herbicidal effect by foliage application, Wagner pot (symbol D); conditions: application herbicide amount 320 g/ha
# Method in brief: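 Scoring took place 3 weeks after application, using fixed criteria. Plants had been raised from seed for 14 days at 25 to 30 °C in submerged alluvial soil before a diluted emulsion of the test compound was sprayed uniformly on the leaves.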
# [3] = tested on: Abutilon theophrasti; assay: Test Example 5: herbicidal effect by foliage application, plastic box (symbol M); conditions: 320 g/ha, 3 weeks after application
# Method in brief: (§2)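 Effect is rated 3 weeks after a foliar spray of water-diluted emulsion concentrate at a predetermined herbicide amount. Plants had grown 14 days in a 25° C. to 30° C. greenhouse from seed in sterilized diluvial soil.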
# [4] = tested on: beet; assay: Test Example 5: effect on crop by foliage application, plastic box (symbol f); conditions: 320 g/ha, 3 weeks after application
# Method in brief: (§3)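 Greenhouse culture at 25° C. to 30° C. followed spot-like sowing into sterilized diluvial soil, with seed covered by roughly 1.5 cm of soil.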
# [5] = tested on: Chenopodium album; assay: Test Example 5: herbicidal effect by foliage application, plastic box (symbol O); conditions: 320 g/ha, 3 weeks after application
# Method in brief: as §2
# [6] = tested on: Amaranthus retroflexus; assay: Test Example 4: herbicidal effect by soil treatment (symbol N); conditions: application herbicide amount 320 g/ha
# Method in brief: as §1
# [7] = tested on: Galium spurium; assay: Test Example 4: herbicidal effect by soil treatment (symbol Q); conditions: application herbicide amount 320 g/ha
# Method in brief: as §1
# [8] = tested on: Digitaria ciliaris; assay: Test Example 5: herbicidal effect by foliage application, plastic box (symbol F); conditions: 320 g/ha, 3 weeks after application
# Method in brief: as §2
# [9] = tested on: Scirpus juncoides; assay: Test Example 1: herbicidal activity, application before weed generation in submerged conditions (symbol B); conditions: application herbicide amount 320 g/ha
# Method in brief: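 Scores run 0 to 5 by herbicidal ratio, with 5 meaning 90% or more and 0 meaning 5% or lower, read 3 weeks after treatment. Compound was applied as a diluted emulsion to the water surface of submerged alluvial-soil pots on the day weed seeds were sown.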
# [10] = tested on: Echinochloa crus-galli var. crus-galli; assay: Test Example 5: herbicidal effect by foliage application, plastic box (symbol H); conditions: 320 g/ha, 3 weeks after application
# Method in brief: as §2
# [11] = tested on: soybean; assay: Test Example 4: effect on crop by soil treatment (symbol d); conditions: application herbicide amount 320 g/ha
# Method in brief: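 Seeds were sown in spots on sterilized diluvial soil in a plastic box and covered with about 1.5 cm of soil. Plants were then grown in a greenhouse at 25° C. to 30° C.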
# [12] = tested on: Avena fatua; assay: Test Example 4: herbicidal effect by soil treatment (symbol I); conditions: application herbicide amount 320 g/ha
# Method in brief: as §1
# [13] = tested on: Avena fatua; assay: Test Example 5: herbicidal effect by foliage application, plastic box (symbol I); conditions: 320 g/ha, 3 weeks after application
# Method in brief: as §2
# [14] = tested on: Setaria viridis; assay: Test Example 4: herbicidal effect by soil treatment (symbol G); conditions: application herbicide amount 320 g/ha
# Method in brief: as §1
# [15] = tested on: Stellaria media; assay: Test Example 5: herbicidal effect by foliage application, plastic box (symbol P); conditions: 320 g/ha, 3 weeks after application
# Method in brief: as §2
# [16] = tested on: Galium spurium; assay: Test Example 5: herbicidal effect by foliage application, plastic box (symbol Q); conditions: 320 g/ha, 3 weeks after application
# Method in brief: as §2
# [17] = tested on: Apera spica-venti; assay: Test Example 5: herbicidal effect by foliage application, plastic box (symbol L); conditions: 320 g/ha, 3 weeks after application
# Method in brief: as §2
# [18] = tested on: Veronica persica; assay: Test Example 5: herbicidal effect by foliage application, plastic box (symbol R); conditions: 320 g/ha, 3 weeks after application
# Method in brief: as §2
# [19] = tested on: rapeseed; assay: Test Example 5: effect on crop by foliage application, plastic box (symbol g); conditions: 320 g/ha, 3 weeks after application
# Method in brief: as §3
SMILES,"L: Apera spica-venti, herbicidal effect grade [1]","herbicidal effect on D (Leptochloa chinensis), grade 0-5 [2]","M: Abutilon theophrasti, herbicidal effect (criteria of Test Example 1) [3]","f: beet, effect on crop (criteria of Test Example 1) [4]","O: Chenopodium album, herbicidal effect (criteria of Test Example 1) [5]","N: Amaranthus retroflexus, herbicidal effect grade [6]","Q: Galium spurium, herbicidal effect grade [7]","F: Digitaria ciliaris, herbicidal effect (criteria of Test Example 1) [8]","Herbicidal effect grade, B: Scirpus juncoides [9]","H: Echinochloa crus-galli var. crus-galli, herbicidal effect (criteria of Test Example 1) [10]","d: soybean, effect on crop grade [11]","I: Avena fatua, herbicidal effect grade [12]","I: Avena fatua, herbicidal effect (criteria of Test Example 1) [13]","G: Setaria viridis, herbicidal effect grade [14]","P: Stellaria media, herbicidal effect (criteria of Test Example 1) [15]","Q: Galium spurium, herbicidal effect (criteria of Test Example 1) [16]","L: Apera spica-venti, herbicidal effect (criteria of Test Example 1) [17]","R: Veronica persica, herbicidal effect (criteria of Test Example 1) [18]","g: rapeseed, effect on crop (criteria of Test Example 1) [19]","Herbicidal effect grade, L: Apera spica-venti [1]",other results
"CON=C(C)CC1CC(O)=C(c2c(C)cc(Br)cc2OC)C1=O (stereo not shown) [6-076, 2-(4-bromo-2-methoxy-6-methylphenyl)-3-hydroxy-5-{2-(methoxyimino)propyl}cyclopent-2-enone]",5 (Herbicidal ratio of 90% or more (almost completely withered)),5 (Herbicidal ratio of 90% or more (almost completely withered)),5 (Herbicidal ratio of 90% or more (almost completely withered)),0 (Herbicidal ratio of 5% or lower (almost no effect)),2 (Herbicidal ratio of 20% or higher and lower than 40%),1 (Herbicidal ratio of 5% or higher and lower than 20%),0 (Herbicidal ratio of 5% or lower (almost no effect)),5 (Herbicidal ratio of 90% or more (almost completely withered)),3 (Herbicidal ratio of 40% or higher and lower than 70%),5 (Herbicidal ratio of 90% or more (almost completely withered)),0 (Herbicidal ratio of 5% or lower (almost no effect)),3 (Herbicidal ratio of 40% or higher and lower than 70%),5 (Herbicidal ratio of 90% or more (almost completely withered)),5 (Herbicidal ratio of 90% or more (almost completely withered)),2 (Herbicidal ratio of 20% or higher and lower than 40%),3 (Herbicidal ratio of 40% or higher and lower than 70%),5 (Herbicidal ratio of 90% or more (almost completely withered)),2 (Herbicidal ratio of 20% or higher and lower than 40%),4 (Herbicidal ratio of 70% or higher and lower than 90%),–,–
CON=C(C)CC1CC(O)=C(c2c(C)cc(OC)cc2C)C1=O (stereo not shown) [6-055],5 (Herbicidal ratio of 90% or more (almost completely withered)),5 (Herbicidal ratio of 90% or more (almost completely withered)),1 (Herbicidal ratio of 5% or higher and lower than 20%),0 (Herbicidal ratio of 5% or lower (almost no effect)),3 (Herbicidal ratio of 40% or higher and lower than 70%),0 (Herbicidal ratio of 5% or lower (almost no effect)),0 (Herbicidal ratio of 5% or lower (almost no effect)),5 (Herbicidal ratio of 90% or more (almost completely withered)),1 (Herbicidal ratio of 5% or higher and lower than 20%),5 (Herbicidal ratio of 90% or more (almost completely withered)),0 (Herbicidal ratio of 5% or lower (almost no effect)),0 (Herbicidal ratio of 5% or lower (almost no effect)),5 (Herbicidal ratio of 90% or more (almost completely withered)),5 (Herbicidal ratio of 90% or more (almost completely withered)),4 (Herbicidal ratio of 70% or higher and lower than 90%),3 (Herbicidal ratio of 40% or higher and lower than 70%),5 (Herbicidal ratio of 90% or more (almost completely withered)),4 (Herbicidal ratio of 70% or higher and lower than 90%),5 (Herbicidal ratio of 90% or more (almost completely withered)),–,–
CC#Cc1cc(C)c(C2=C(O)CC(CC(C)=O)C2=O)c(C)c1 (stereo not shown) [7-010],–,5 (Herbicidal ratio of 90% or more (almost completely withered)),3 (Herbicidal ratio of 40% or higher and lower than 70%),0 (Herbicidal ratio of 5% or lower (almost no effect)),2 (Herbicidal ratio of 20% or higher and lower than 40%),–,–,5 (Herbicidal ratio of 90% or more (almost completely withered)),5 (Herbicidal ratio of 90% or more (almost completely withered)),5 (Herbicidal ratio of 90% or more (almost completely withered)),–,–,4 (Herbicidal ratio of 70% or higher and lower than 90%),–,0 (Herbicidal ratio of 5% or lower (almost no effect)),0 (Herbicidal ratio of 5% or lower (almost no effect)),5 (Herbicidal ratio of 90% or more (almost completely withered)),4 (Herbicidal ratio of 70% or higher and lower than 90%),4 (Herbicidal ratio of 70% or higher and lower than 90%),5 (Herbicidal ratio of 90% or more (almost completely withered)),"Herbicidal effect grade, N: Amaranthus retroflexus [6]: 0 (Herbicidal ratio of 5% or lower (almost no effect)); Herbicidal effect grade, Q: Galium spurium [7]: 0 (Herbicidal ratio of 5% or lower (almost no effect)); Effect on crop grade, d: soybean [11]: 2 (Herbicidal ratio of 20% or higher and lower than 40%); Herbicidal effect grade, I: Avena fatua [12]: 2 (Herbicidal ratio of 20% or higher and lower than 40%); Herbicidal effect grade, G: Setaria viridis [14]: 5 (Herbicidal ratio of 90% or more (almost completely withered))"
CC(=O)CC1CC(O)=C(c2c(C)cc(-n3cccn3)cc2C)C1=O (stereo not shown) [7-024],–,5 (Herbicidal ratio of 90% or more (almost completely withered)),0 (Herbicidal ratio of 5% or lower (almost no effect)),0 (Herbicidal ratio of 5% or lower (almost no effect)),0 (Herbicidal ratio of 5% or lower (almost no effect)),–,–,0 (Herbicidal ratio of 5% or lower (almost no effect)),1 (Herbicidal ratio of 5% or higher and lower than 20%),5 (Herbicidal ratio of 90% or more (almost completely withered)),–,–,2 (Herbicidal ratio of 20% or higher and lower than 40%),–,0 (Herbicidal ratio of 5% or lower (almost no effect)),0 (Herbicidal ratio of 5% or lower (almost no effect)),1 (Herbicidal ratio of 5% or higher and lower than 20%),0 (Herbicidal ratio of 5% or lower (almost no effect)),2 (Herbicidal ratio of 20% or higher and lower than 40%),0 (Herbicidal ratio of 5% or lower (almost no effect)),"Herbicidal effect grade, N: Amaranthus retroflexus [6]: 0 (Herbicidal ratio of 5% or lower (almost no effect)); Herbicidal effect grade, Q: Galium spurium [7]: 0 (Herbicidal ratio of 5% or lower (almost no effect)); Effect on crop grade, d: soybean [11]: 0 (Herbicidal ratio of 5% or lower (almost no effect)); Herbicidal effect grade, I: Avena fatua [12]: 0 (Herbicidal ratio of 5% or lower (almost no effect)); Herbicidal effect grade, G: Setaria viridis [14]: 0 (Herbicidal ratio of 5% or lower (almost no effect))"
